Active and inactive are the calls of the source. The calls are words filed in the database; no cut-off is given here.
Legend:
Plasmodium falciparum = test: Antiplasmodial activity against chloroquine and pyrimethamine-resistant Plasmodium falciparum K1 assessed as [3H]hypoxanthine incorporation after 48 hrs by liquid scintillation counter; assay type: functional, organism-based
[1] = system: Trypanosoma brucei rhodesiense; test: Antitrypanosomal activity against Trypanosoma brucei rhodesiense STIB900 bloodstream forms after 72 hrs by serial dilution Alamar blue assay; assay type: functional, organism-based; settings: STIB900, 72 h
L6 = test: Cytotoxicity against rat L6 cells; assay type: cell-based
[2] = Selectivity index, ratio of IC50 for rat L6 cells to IC50 for Trypanosoma brucei rhodesiense STIB900; assay type: toxicity, cell-based; settings: L6 cells (versus Trypanosoma brucei rhodesiense STIB900), read-out: Ratio IC50
Plasmodium berghei [3] = test: Antimalarial activity against Plasmodium berghei ANKA infected in albino mouse assessed as prolongation of survival time at 30 to 50 mg/kg, ip administered as single dose post infection (reference value: 6.7 days); assay type: functional; settings: dose mg/kg 30-50; route intraperitoneal
[4] = Selectivity index, ratio of IC50 for rat L6 cells to IC50 for chloroquine and pyrimethamine-resistant Plasmodium falciparum K1; assay type: toxicity, cell-based; settings: L6 cells (versus Plasmodium falciparum K1), read-out: Ratio IC50
Plasmodium berghei [5] = test: Antimalarial activity against Plasmodium berghei ANKA infected in albino mouse assessed as inhibition of parasitemia at 30 to 50 mg/kg, ip administered as single dose post-infection measured after 24 hrs by Giemsa staining-based microscopy; assay type: functional; settings: dose mg/kg 30-50; route intraperitoneal
[6] = system: Trypanosoma brucei brucei; test: […] activity against Trypanosoma brucei brucei STIB 795 infected in NMRI mouse assessed as reduction in parasitemia compound administered on day 3 and day 6 post infection measured on day 10; assay type: functional, organism-based
[7] = system: Trypanosoma brucei brucei; test: […] activity against Trypanosoma brucei brucei STIB 795 infected in NMRI mouse assessed as reduction in parasitemia compound administered on day 3 and day 6 post infection measured after 24 hrs; assay type: functional, organism-based

Compound	IC50 (Plasmodium falciparum) [µM]	IC50 [1] [µM]	IC50 (L6) [µM]	selectivity ratio [2]	MST (Plasmodium berghei [3]) [days]	selectivity ratio [4]	inhibition (INH) (Plasmodium berghei [5]) [%]	Activity [6]	Activity [7]
C[C@@H]1CC[C@H]2[C@@H](C)C(=O)O[C@@H]3O[C@@]4(C)CC[C@@H]1[C@]32OO4 [ARTEMISININ]	0.0064	–	–	–	–	–	–	–	–
CN1CCN(CCCN2CCC3(N4CCCC4)CC(c4ccccc4)C2C(c2ccccc2)C3)CC1 (racemic)	0.27	6.99	27.4	3.93	7.7	102	39	–	–
CN1CCN(CCC(=O)OC2CC3(N(C)C)CC(c4ccccc4)C2C(c2ccccc2)C3)CC1 (racemic)	0.46	0.21	31.1	148	–	67.7	–	–	–
CN1CCN(CCCC(=O)OC2CC3(N(C)C)CC(c4ccccc4)C2C(c2ccccc2)C3)CC1 (racemic)	0.24	0.08	19.9	248	–	82.7	–	–	–
CN1CCN(CCC(=O)NC2CC3(N4CCN(C)CC4)CC(c4ccccc4)C2C(c2ccccc2)C3)CC1 (racemic)	0.55	3.3	67.9	20.6	–	123	–	–	–
CN1CCN(C23CCNC(C(c4ccccc4)C2)C(c2ccccc2)C3)CC1 (racemic)	1.5	0.38	96.9	255	–	64.6	–	–	–
CN1CCN(CCCC(=O)OC2CC3(N4CCCCC4)CC(c4ccccc4)C2C(c2ccccc2)C3)CC1 (racemic)	0.05	0.16	22.3	139	–	446	–	–	–
CN1CCN(CCN2CCC3(N(C)C)CC(c4ccccc4)C2C(c2ccccc2)C3)CC1 (racemic)	0.52	13.5	70.3	5.19	–	135	–	–	–
c1ccc(C2CC3(N4CCCCC4)CCN(CCCN4CCCCC4)C2C(c2ccccc2)C3)cc1 (stereo not drawn)	–	18.4	–	7.5	–	–	–	–	–
CN1CCN(CCCC(=O)OC2CC3(N4CCCC4)CC(c4ccccc4)C2C(c2ccccc2)C3)CC1 (racemic)	0.12	0.15	10.2	67.7	–	84.7	–	–	–
Nc1nc(N)nc(Nc2ccc([As]3SCC(CO)S3)cc2)n1 (stereo not drawn) [MELARSOPROL]	–	0.009	–	1940	–	–	–	–	–
CN1CCN(CCCN2CCC3(N(C)C)CC(c4ccccc4)C2C(c2ccccc2)C3)CC1 (racemic)	0.51	11.5	54.5	4.74	–	107	–	–	–
CN1CCN(CCN2CCC3(N4CCCCC4)CC(c4ccccc4)C2C(c2ccccc2)C3)CC1 (racemic)	0.3	43.7	127	2.91	–	424	–	–	–
CCN(CC)CCC(=O)OC1CC2(N(C)C)CC(c3ccccc3)C1C(c1ccccc1)C2 (stereo not drawn)	–	–	–	215	–	54.9	–	–	–
CN1CCN(CCCN2CCC3(N4CCN(C)CC4)CC(c4ccccc4)C2C(c2ccccc2)C3)CC1 (racemic)	0.25	6.67	47.8	7.16	–	191	–	–	–
CN1CCN(CCC(=O)N2CCC3(N4CCN(C)CC4)CC(c4ccccc4)C2C(c2ccccc2)C3)CC1 (racemic)	1.95	3.62	161	44.5	–	82.5	–	–	–
CN1CCN(CCCN2CCC3(N4CCCCC4)CC(c4ccccc4)C2C(c2ccccc2)C3)CC1 (racemic)	0.11	17.6	62.5	3.55	–	568	–	–	–
CN1CCN(CCC(=O)OC2CC3(N4CCCC4)CC(c4ccccc4)C2C(c2ccccc2)C3)CC1 (racemic)	0.26	0.45	21.3	47.4	–	82	–	–	–
CN1CCN(CC(=O)NC2CC3(N4CCN(C)CC4)CC(c4ccccc4)C2C(c2ccccc2)C3)CC1 (racemic)	0.62	2.06	42.1	20.4	–	67.9	–	–	–
CN1CCN(CCN2CCC3(N4CCCC4)CC(c4ccccc4)C2C(c2ccccc2)C3)CC1 (racemic)	0.023	6.35	50.3	7.93	8.3	2190	39	–	–
CN1CCN(CCC(=O)OC2CC3(N4CCCCC4)CC(c4ccccc4)C2C(c2ccccc2)C3)CC1 (racemic)	0.06	0.087	23.5	271	–	392	–	Active	Active
